Reference: patent US20070208087A1, “Compounds, compositions and methods for the treatment of inflammatory diseases” (priority 2001, published 2007)
Values joined by “and” are separate entries in the source; they are usually repeats but may differ in a detail not shown here. Equal values may be shown once. Read-outs that look alike come from different tables or passages of the source.

Experiments:
Type in all cases: cell-based
Microglial cells [1] = experiment: Dose response inhibition of NO release from microglia, 0.75-200 μM (Example 8)
Description: This experiment was designed to determine dose response inhibition of NO release from microglia by bis- and tris-dihydroxyaryl compounds when stimulated with LPS/IFNγ. […] This experiment is designed to determine a dose response for various bis- and tris-dihydroxyaryl compounds. Microglial cells were plated into 96 well plates at 1×10^5 cells/ml. […] The doses tested were: 0.75 μM, 1.56 μM, 3.125 μM, 6.25 μM, 12.5 μM, 25 μM, 50 μM, 100 μM and 200 μM. Nitric oxide release was measured after 48 hours using the Griess reaction.

[2] = system: EOC 13.31 microglia cells; experiment: Inhibition of NO release from microglia following 24 hours pretreatment (Example 10); settings: for inhibition at 50 µM: Microglia
Summary of the method: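 Confluent EOC 13.31 cells pretreated 24 hours with 50 μM compound (from 10 mM DMSO stock), then stimulated with 10 μg/ml LPS plus 10 ng/ml IFNγ without media change. After a further 48 hours, NO release was measured by Griess Reaction.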

Microglial cells [3] = experiment: Dose response inhibition of NO release from microglia, 0.5-500 μM (Example 9); settings: for μM NO release / μM NO release (No LPS average subtracted): 3 replicates
Description: This experiment was designed to determine the dose response inhibition of NO release from microglia by bis- and tris-dihydroxyaryl compounds when stimulated with LPS/IFNγ. Earlier experiments have demonostrated that some bis- and tris-dihydroxyaryl compounds are good inhibitors of NO release from microglia. This experiment is designed to determine a dose response for various effective bis- and tris-dihydroxyaryl compounds. Microglial cells were plated into 96 well plates at 1×10^5 cells/ml. At 48 hours, media was exchanged for media containing 10 ng/ml IFNγ and 10 μg/ml LPS and the following compounds 3, 4, 21, 26 and the positive control L-NAME. The doses tested were: 0.5 μM, 1.0 μM, 5.0 μM, 10 μM, 25 μM, 50 μM, 100 μM, 250 μM, and 500 μM. Nitric oxide release was measured after 48 hours using the Griess reaction.

[4] = dose 200 μM, 48 hours, single replicates
[5] = dose 0.5 μM, LPS/IFNγ, 48 hours
[6] = dose 100 μM, LPS/IFNγ, 48 hours
[7] = dose 250 μM, LPS/IFNγ, 48 hours
[8] = dose 500 μM, LPS/IFNγ, 48 hours

O=C(NCc1ccc(O)c(O)c1)C(=Cc1ccc(O)c(O)c1)NC(=O)c1ccc(O)c(O)c1 [Compound 21, α-(3,4-dihydroxybenzamido)-3,4-dihydroxycinnamic acid 3,4-dihydroxybenzyl amide]
OD values (printed under head μM NO release) (Microglial cells [1]; [4]): 0.087 and 0.093 and 0.092 | μM NO release (Microglial cells [1]; [4]): 5.625 µM and 6.41 µM | inhibition of NO release, in words (Microglial cells [1]; dose response 0.75-200 μM): effective inhibitors of NO release | % inhibition ([2]; 50 uM pretreatment 24 hours, then LPS/IFNγ 48 hours, single replicates): 82.29% and 84.17% | inhibition at 50 µM ([2]; 50 uM pretreatment 24 hours, then LPS/IFNγ 48 hours, read-out: Avg % Inhibition): 83.9% | inhibition at 50 µM ([2]; 50 uM pretreatment 24 hours, then LPS/IFNγ 48 hours, single replicates, read-out: % inhibition): 85.2% | inhibition at 50 µM ([2]; 50 μM pretreatment, read-out: inhibition of NO release following pretreatment): > 75% | inhibition at 0.5 µM (Microglial cells [3]; Microglia, 48 h, dose 0.5 μM, NO release, LPS/IFNγ, 48 hours, read-out: Avg % Inhibition): -0.76% | inhibition at 1 µM (Microglial cells [3]; Microglia, 48 h, dose 1 μM, NO release, LPS/IFNγ, 48 hours, read-out: Avg % Inhibition): 1.01% | inhibition at 5 µM (Microglial cells [3]; Microglia, 48 h, dose 5 μM, NO release, LPS/IFNγ): 0.76% | inhibition at 10 µM (Microglial cells [3]; Microglia, 48 h, dose 10 μM, NO release, LPS/IFNγ): -1.27% | inhibition at 25 µM (Microglial cells [3]; Microglia, 48 h, dose 25 μM, NO release, LPS/IFNγ): 4.82% | inhibition at 50 µM (Microglial cells [3]; Microglia, 48 h, dose 50 μM, NO release, LPS/IFNγ): 13.2% | inhibition at 100 µM (Microglial cells [3]; Microglia, 48 h, dose 100 μM, NO release, LPS/IFNγ, 48 hours, read-out: Avg % Inhibition): 35.2% | inhibition at 100 µM (Microglial cells [3]; Microglia, 48 h, dose 100 μM, individual replicates, NO release, LPS/IFNγ, 48 hours, read-out: % inhibition): 29.4% | inhibition at 250 µM (Microglial cells [3]; Microglia, 48 h, dose 250 μM, NO release, LPS/IFNγ, 48 hours, read-out: Avg % Inhibition): 83.5% | inhibition at 250 µM (Microglial cells [3]; Microglia, 48 h, dose 250 μM, individual replicates, NO release, LPS/IFNγ, 48 hours, read-out: % inhibition): 81% | inhibition at 500 µM (Microglial cells [3]; Microglia, 48 h, dose 500 μM, NO release, LPS/IFNγ, 48 hours, read-out: Avg % Inhibition): 80.3% | inhibition at 500 µM (Microglial cells [3]; Microglia, 48 h, dose 500 μM, individual replicates, NO release, LPS/IFNγ, 48 hours, read-out: % inhibition): 78% | μM NO release (Microglial cells [3]; [5]): 19.722 µM and 20.139 µM and 20.417 µM | μM NO release (No LPS average subtracted) (Microglial cells [3]; [5]): 18.02 µM and 18.44 µM and 18.72 µM | % inhibition (Microglial cells [3]; dose 0.5 μM, individual replicates, NO release, LPS/IFNγ, 48 hours): 1.27% and −1.01% and −2.54% | μM NO release (Microglial cells [3]; dose 1 μM, LPS/IFNγ, 48 hours): 20.694 µM and 19.444 µM and 19.167 µM | μM NO release (No LPS average subtracted) (Microglial cells [3]; dose 1 μM, LPS/IFNγ, 48 hours): 18.99 µM and 17.74 µM and 17.47 µM | % inhibition (Microglial cells [3]; dose 1 μM, individual replicates, NO release, LPS/IFNγ, 48 hours): −4.06% and 2.79% and 4.31% | μM NO release (Microglial cells [3]; dose 5 μM, LPS/IFNγ, 48 hours): 20.278 µM and 20.000 µM and 19.167 µM | μM NO release (No LPS average subtracted) (Microglial cells [3]; dose 5 μM, LPS/IFNγ, 48 hours): 18.58 µM and 18.30 µM and 17.47 µM | % inhibition (Microglial cells [3]; dose 5 μM, individual replicates, NO release, LPS/IFNγ, 48 hours): −1.78% and −0.25% and 4.31% | μM NO release (Microglial cells [3]; dose 10 μM, LPS/IFNγ, 48 hours): 20.556 μM (2×) and 19.444 μM | μM NO release (No LPS average subtracted) (Microglial cells [3]; dose 10 μM, LPS/IFNγ, 48 hours): 18.86 μM (2×) and 17.74 μM | % inhibition (Microglial cells [3]; dose 10 μM, individual replicates, NO release, LPS/IFNγ, 48 hours): −3.30% (2×) and 2.79% | μM NO release (Microglial cells [3]; dose 25 μM, LPS/IFNγ, 48 hours): 19.722 µM and 18.889 µM and 18.611 µM | μM NO release (No LPS average subtracted) (Microglial cells [3]; dose 25 μM, LPS/IFNγ, 48 hours): 18.02 µM and 17.19 µM and 16.91 µM | % inhibition (Microglial cells [3]; dose 25 μM, individual replicates, NO release, LPS/IFNγ, 48 hours): 1.27% and 5.83% and 7.36% | μM NO release (Microglial cells [3]; dose 50 μM, LPS/IFNγ, 48 hours): 18.472 µM and 16.806 µM and 17.361 µM | μM NO release (No LPS average subtracted) (Microglial cells [3]; dose 50 μM, LPS/IFNγ, 48 hours): 16.77 µM and 15.11 µM and 15.66 µM | % inhibition (Microglial cells [3]; dose 50 μM, individual replicates, NO release, LPS/IFNγ, 48 hours): 8.12% and 17.25% and 14.20% | μM NO release (Microglial cells [3]; [6]): 14.583 µM and 12.639 µM and 13.333 µM | μM NO release (No LPS average subtracted) (Microglial cells [3]; [6]): 12.88 µM and 10.94 µM and 11.63 µM | % inhibition (Microglial cells [3]; dose 100 μM, individual replicates, NO release, LPS/IFNγ, 48 hours): 40.07% and 36.27% | μM NO release (Microglial cells [3]; [7]): 5.163 µM and 3.940 µM and 5.027 µM | μM NO release (No LPS average subtracted) (Microglial cells [3]; [7]): 3.46 µM and 2.24 µM and 3.33 µM | % inhibition (Microglial cells [3]; dose 250 μM, individual replicates, NO release, LPS/IFNγ, 48 hours): 87.73% and 81.77% | μM NO release (Microglial cells [3]; [8]): 5.707 µM and 4.348 µM and 5.842 µM | μM NO release (No LPS average subtracted) (Microglial cells [3]; [8]): 4.01 µM and 2.65 µM and 4.14 µM | % inhibition (Microglial cells [3]; dose 500 μM, individual replicates, NO release, LPS/IFNγ, 48 hours): 85.49% and 77.31% | inhibition of NO release, in words (Microglial cells [3]; dose response 0.5-500 μM): most effective at the 250 μM dose
